Laboratory results: US10519115B2, “Antidiabetic tricyclic compounds” (Merck Sharp & Dohme Corp., priority 2013, dated 2019)

How the values were obtained:
Format in all cases: cell-based
Human GPR40 [1] = molecular target: T1, Human GPR40 (Homo sapiens, UniProt O14842); experiment: FLIPR assay (agonist-induced calcium mobilization, GPR40/CHO NFAT BLA cells); parameters: expressed in transfected cells
Description: (§1) Human and mouse GPR40 stable cell-lines were generated in CHO cells stably expressing NFAT BLA (Beta-lactamase). A human GPR40 stable cell-line was generated in HEK cells stably expressing the aequorin expressing reporter. The expression plasmids were transfected using lipofectamine (Life Technologies) following manufacturer's instructions. Stable cell-lines were generated following drug selection.
FLIPR (Fluorimetric Imaging Plate Reader, Molecular Devices) assays were performed to measure agonist-induced calcium mobilization of the stable clones. For the FLIPR assay, one day before assay, GPR40/CHO NFAT BLA cells were seeded into black-wall-clear-bottom 384-well plates (Costar) at 1.4×10e4 cells/20 μL medium/well. The cells were incubated with 20 μl/well of the assay buffer (HBSS, 0.1% BSA, 20 mM HEPES, 2.5 mM probenecid, pH 7.4) containing 8 μM fluo-4, AM, 0.08% pluronic acid at room temperature for 100 minutes. Fluorescence output was measured using FLIPR. Compounds were dissolved in DMSO and diluted to desired concentrations with assay buffer. 13.3 μL/well of compound solution was added.

Human GPR40 [2] = molecular target: T1, Human GPR40; experiment: Inositol Phosphate Turnover Assay 1 (HEK cells stably expressing human GPR40); parameters: expressed in transfected cells; host or cells: HEK cells stably expressing the aequorin reporter; conditions: HEK cells stably expressing human GPR40, 96-well, 3H-inositol; read-out: Human GPR40 IP1 Assay 1, EC50
Description: as §1
The assay was performed in 96-well format. HEK cells stably expressing human GPR40 were plated to be 60-80% confluent within 72 h. After 72 h, the plates were aspirated and the cells washed with inositol-free DMEM (ICN). The wash media was replaced with 150 μL of 3H-inositol labeling media (inositol-free media containing 0.4% human albumin or 0.4% mouse albumin, 1× pen/strep antibiotics, glutamine, 25 mM HEPES to which was added 3H-myo-inositol NEN #NET114A 1 mCi/mL, 25 Ci/mmol diluted 1:150 in loading media with a final specific radioactivity of 1 μCi/150 μL). Alternatively, the human and mouse albumin can be added after the overnight labeling step before the addition of LiCl.
The assay was typically run the next day after 18 h labeling. On the day of the assay, 5 μL of 300 mM LiCl was added to all wells and incubated at 37 degrees for 20 min. 0.75 μL of 200× compounds were added and incubated with the cells for 60 min at 37 degrees. The media was then aspirated off and the assay terminated with the addition of 60 μL 10 mM formic acid. The cells were lysed for 60 min at room temperature. 15-30 μL of lysate was mixed with 70 μL/1 mg YSi SPA beads (Amersham) in clear bottom Isoplates. The plates were shaken for 2 h at room temperature. Beads were allowed to settle and the plates were counted in the Wallac Microbeta.

Human GPR40 [3] = molecular target: T1, Human GPR40; experiment: Inositol Phosphate Turnover (IP1) Assay 2 (HEK cells stably expressing human GPR40, CisBio IP-One kit); parameters: expressed in transfected cells; host or cells: HEK cells stably expressing the aequorin reporter; conditions: HEK cells stably expressing human GPR40, 384-well
Description: as §1
The assay was performed in 384-well format. HEK cells stably expressing human GPR40 were plated at 15,000 cells per well in growth medium (DMEM/10% fetal calf serum). Cell plates were then incubated 16 hours at 37 degrees in a 5% CO2 incubator.
Measurement of Inositol Phosphate Turnover (IP1) was performed using the CisBio IP-One kit (Part number 62IPAPEB). After the 16 hour incubation, the cells were washed with HEPES buffer and 10 ul of stimulation buffer (prepared as described in the kit) was added to each well. In a separate plate, compounds were diluted in DMSO (400-fold over the final concentration in the assay well) and 25 nl was acoustically transferred to the appropriate well in the assay cell plate. The plates were then incubated for 60 minutes at 37 degrees. 10 ul of detection buffer (also prepared as described in the IP-One kit) was added to each well and the plates were incubated for 60 minutes in the dark. The plates were then read in a Perkin Elmer EnVision or equivalent reader able to measure FRET. Fluorescent ratio of emission at 665 and 620 nm was then converted to IP1 concentration by back calculating from an IP1 standard curve prepared at the time of the assay.

T1 sequence (O14842 whole entry): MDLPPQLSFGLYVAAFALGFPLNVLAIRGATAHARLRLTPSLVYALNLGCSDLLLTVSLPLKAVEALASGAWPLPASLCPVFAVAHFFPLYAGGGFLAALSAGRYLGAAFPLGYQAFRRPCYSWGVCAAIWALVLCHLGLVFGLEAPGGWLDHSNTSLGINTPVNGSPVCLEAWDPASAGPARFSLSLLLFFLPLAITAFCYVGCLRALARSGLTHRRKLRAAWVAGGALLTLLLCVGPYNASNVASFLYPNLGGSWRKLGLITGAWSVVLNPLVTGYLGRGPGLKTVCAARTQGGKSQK

## CC(C)(O)C1CCN(c2ccc(-c3cc(COc4cc5c(cn4)[C@H]4[C@@H](C5)[C@@H]4C(=O)O)c(F)cc3C(F)(F)F)c(F)c2)CC1 [Compound-12, (5aR,6S,6aS)-3-((2′,4-difluoro-4′-(4-(2-hydroxypropan-2-yl)piperidin-1-yl)-6-(trifluoromethyl)-[1,1′-biphenyl]-3-yl)methoxy)-5,5a,6,6a-tetrahydrocyclopropa[4,5]cyclopenta[1,2-c]-pyridine-6-carboxylic acid]
Human GPR40 [1]
  EC50: 6.1 nM
Human GPR40 [2]
  EC50: 20 nM

## C[C@]1(O)CC[C@H](Oc2c(F)cc(-c3cc(COc4cc5c(cn4)[C@H]4[C@@H](C5)[C@@H]4C(=O)O)c(F)cc3C(F)(F)F)cc2F)CC1 [Compound-3, (5aR,6S,6aS)-3-{[3′,4,5′-trifluoro-4′-(((1r,4r)-4-hydroxy-4-methylcyclohexyl)oxy)-6-(trifluoromethyl)-[1,1′-biphenyl]-3-yl]methoxy}-5,5a,6,6a-tetrahydrocyclopropa[4,5]cyclopenta[1,2-c]pyridine-6-carboxylic acid]
Human GPR40 [1]
  EC50: 3.7 nM
Human GPR40 [2]
  EC50: 14 nM

## O=C(O)[C@H]1[C@@H]2Cc3cc(OCc4cc(-c5ccc(C6CCN(S(=O)(=O)C7CC7)CC6)cc5)c(C(F)(F)F)cc4F)ncc3[C@@H]21 [Compound-6, (5aR,6S,6aS)-3-((4′-(1-(cyclopropylsulfonyl)piperidin-4-yl)-4-fluoro-6-(trifluoromethyl)-[1,1′-biphenyl]-3-yl)methoxy)-5,5a,6,6a-tetrahydrocyclopropa[4,5]cyclopenta[1,2-c]pyridine-6-carboxylic acid]
Human GPR40 [1]
  EC50: 4.2 nM
Human GPR40 [2]
  EC50: 47 nM

## CS(=O)(=O)N1CC2(CN(c3ccc(-c4cc(COc5cc6c(cn5)[C@H]5[C@@H](C6)[C@@H]5C(=O)O)c(F)cc4C(F)(F)F)c(F)c3)C2)C1 [Compound-4, (5aR,6S,6aS)-3-((2′,4-difluoro-4′-(6-(methylsulfonyl)-2,6-diazaspiro[3,3]heptan-2-yl)-6-(trifluoromethyl)-[1,1′-biphenyl]-3-yl)methoxy)-5,5a,6,6a-tetrahydrocyclopropa[4,5]-cyclopenta[1,2-c]pyridine-6-carboxylic acid]
Human GPR40 [1]
  EC50: 10 nM
Human GPR40 [2]
  EC50: 19 nM

## CC(C)(O)Cn1cc2c(n1)CN(c1ccc(-c3cc(COc4cc5c(cn4)[C@H]4[C@@H](C5)[C@@H]4C(=O)O)c(F)cc3C(F)(F)F)c(F)c1)C2 [Compound-13, (5aR,6S,6aS)-3-((2′,4-difluoro-4′-(2-(2-hydroxy-2-methylpropyl)pyrrolo[3,4-c]pyrazol-5(2H,4H,6H)-yl)-6-(trifluoromethyl)-[1,1′-biphenyl]-3-yl)methoxy)-5,5a,6,6a-tetrahydrocyclo-propa[4,5]cyclopenta[1,2-c]pyridine-6-carboxylic acid]
Human GPR40 [1]
  EC50: 6.7 nM
Human GPR40 [2]
  EC50: 15 nM

## CC1(O)CCN(c2ccc(-c3cc(COc4cc5c(cn4)[C@H]4[C@@H](C5)[C@@H]4C(=O)O)c(F)cc3C(F)(F)F)c(F)c2)CC1 [Compound-11, (5aR,6S,6aS)-3-((2′,4-difluoro-4′-(4-hydroxy-4-methylpiperidin-1-yl)-6-(trifluoromethyl)-[1,1′-biphenyl]-3-yl)methoxy)-5,5a,6,6a-tetrahydrocyclopropa[4,5]cyclopenta[1,2-c]pyridine-6-carboxylic acid]
Human GPR40 [1]
  EC50: 5.6 nM
Human GPR40 [2]
  EC50: 6.8 nM

## CS(=O)(=O)N1CCC(c2ccc(-c3cc(COc4cc5c(cn4)[C@H]4[C@@H](C5)[C@@H]4C(=O)O)c(F)cc3C(F)(F)F)cc2)CC1 [Compound-5, (5aR,6S,6aS)-3-((4-fluoro-4′-(1-(methylsulfonyl)piperidin-4-yl)-6-(trifluoromethyl)-[1,1′-biphenyl]-3-yl)methoxy)-5,5a,6,6a-tetrahydrocyclopropa[4,5]cyclopenta[1,2-c]pyridine-6-carboxylic acid]
Human GPR40 [1]
  EC50: 4.2 nM
Human GPR40 [2]
  EC50: 13 nM

## Cc1nc(N2Cc3cn(CC(C)(C)O)nc3C2)ccc1-c1cc(COc2cc3c(cn2)[C@H]2[C@@H](C3)[C@@H]2C(=O)O)c(F)cc1C(F)(F)F [Compound-18, (5aR,6S,6aS)-3-((2-fluoro-5-(6-(2-(2-hydroxy-2-methylpropyl)pyrrolo[3,4-c]pyrazol-5(2H,4H,6H)-yl)-2-methylpyridin-3-yl)-4-(trifluoromethyl)benzyl)oxy)-5,5a,6,6a-tetrahydrocyclopropa[4,5]cyclopenta[1,2-c]pyridine-6-carboxylic acid]
Human GPR40 [2]
  EC50: 7.6 nM
Human GPR40 [3]
  EC50: 1 nM

## O=C(O)[C@H]1[C@@H]2Cc3cc(OCc4cc(-c5ccc(-c6ccc(Cl)cc6F)cc5F)c(C(F)(F)F)cc4F)ncc3[C@@H]21 [Compound-8, (5aR,6S,6aS)-3-((4″-chloro-2′,2″,4-trifluoro-6-(trifluoromethyl)-[1,1′:4′,1″-terphenyl]-3-yl)methoxy)-5,5a,6,6a-tetrahydrocyclopropa[4,5]cyclopenta[1,2-c]pyridine-6-carboxylic acid]
Human GPR40 [1]
  EC50: 12 nM
Human GPR40 [2]
  EC50: 63 nM

## C[C@]1(O)C[C@@H](COc2c(F)cc(-c3cc(COc4cc5c(cn4)[C@H]4[C@@H](C5)[C@@H]4C(=O)O)c(F)cc3C(F)(F)F)cc2F)C1 [Compound-2, (5aR,6S,6aS)-3-{[3′,4,5′-trifluoro-4′-(((1s,3s)-3-hydroxy-3-methylcyclobutyl)methoxy)-6-(trifluoromethyl)-[1,1′-biphenyl]-3-yl]methoxy}-5,5a,6,6a-tetrahydrocyclopropa[4,5]cyclopenta[1,2-c]pyridine-6-carboxylic acid]
Human GPR40 [1]
  EC50: 5.8 nM
Human GPR40 [2]
  EC50: 6.9 nM

## Cn1nnc(-c2ccc(-c3cc(COc4cc5c(cn4)[C@H]4[C@@H](C5)[C@@H]4C(=O)O)c(F)cc3C(F)(F)F)c(F)c2)n1 [Compound-7, (5aR,6S,6aS)-3-((2′,4-difluoro-4′-(2-methyl-2H-tetrazol-5-yl)-6-(trifluoromethyl)-[1,1′-biphenyl]-3-yl)methoxy)-5,5a,6,6a-tetrahydrocyclopropa[4,5]cyclopenta[1,2-c]pyridine-6-carboxylic acid]
Human GPR40 [1]
  EC50: 6.7 nM
Human GPR40 [2]
  EC50: 3.4 nM

## Cc1nc(OC[C@H]2C[C@@](C)(O)C2)ccc1-c1cc(COc2cc3c(cn2)[C@H]2[C@@H](C3)[C@@H]2C(=O)O)c(F)cc1C(F)(F)F [Compound-14, (5 aR,6S,6aS)-3-((2-fluoro-5-(6-(((1s,3s)-3-hydroxy-3-methylcyclobutyl)methoxy)-2-methylpyridin-3-yl)-4-(trifluoromethyl)benzyl)oxy)-5,5a,6,6a-tetrahydrocyclopropa-[4,5]cyclopenta[1,2-c]pyridine-6-carboxylic acid]
Human GPR40 [2]
  EC50: 6.3 nM
Human GPR40 [3]
  EC50: 1.2 nM

## Cc1cc(-c2nnn(CC(C)(C)O)n2)cc(C)c1-c1cc(COc2cc3c(cn2)[C@H]2[C@@H](C3)[C@@H]2C(=O)O)c(F)cc1F [Compound-16, (5aR,6S,6aS)-3-((4,6-difluoro-4′-(2-(2-hydroxy-2-methylpropyl)-2H-tetrazol-5-yl)-2′,6′-dimethyl-[1,1′-biphenyl]-3-yl)methoxy)-5,5a,6,6a-tetrahydrocyclopropa[4,5]cyclopenta[1,2-c]pyridine-6-carboxylic acid]
Human GPR40 [2]
  EC50: 9.4 nM
Human GPR40 [3]
  EC50: 1 nM

## C[C@]1(O)C[C@@H](COc2ccc(-c3cc(COc4cc5c(cn4)[C@H]4[C@@H](C5)[C@@H]4C(=O)O)c(F)cc3C(F)(F)F)cc2F)C1 [Compound-1, (5aR,6S,6aS)-3-{[3′,4-difluoro-4′-(((1s,3s)-3-hydroxy-3-methylcyclobutyl)methoxy)-6-(trifluoromethyl)-[1,1′-biphenyl]-3-yl]methoxy}-5,5a,6,6a-tetrahydrocyclopropa[4,5]cyclopenta[1,2-c]pyridine-6-carboxylic acid]
Human GPR40 [1]
  EC50: 7 nM
Human GPR40 [2]
  EC50: 11 nM
